{"source": "patent US12065421B2", "about": "“Inhibitors of oplophorus luciferase-derived bioluminescent complexes” (priority 2018, dated 2024)"}
{"biological_target": "T1, NanoBiT® HiBiT non-luminescent peptide and LgBiT non-luminescent polypeptide (HiBiT/LgBiT bioluminescent complex) (Oplophorus gracilirostris, UniProt Q9GV45, A31E/A60N/A81I/C191F/D135N/E192K/F58L/F95D/G184S/G42A/G62A/G78A/G94A/G98A/H120P/I103V/I117V/I134L/K70R/L176M/L195S/L54V/L73R/L99Q/M102E/N171T/N193K/P142E/Q151K/Q38E/Q45L/T186S/V71I/Y165I)", "T1 construct": "fused on or other part: N-terminal Met-Val on LgBiT in place of the signal peptide (residues 1-27); The chain is split between residues 184 and 185 into LgBiT and the 11-residue HiBiT peptide (residues 185-195); C-terminal A196 is absent", "T1 sequence (Q9GV45 other isoform, or with tags, fused parts or gaps with the stated changes)": "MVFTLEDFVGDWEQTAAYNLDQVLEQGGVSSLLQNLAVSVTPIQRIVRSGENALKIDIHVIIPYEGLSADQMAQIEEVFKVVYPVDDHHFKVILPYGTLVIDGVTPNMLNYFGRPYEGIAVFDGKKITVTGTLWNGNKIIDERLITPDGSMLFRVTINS", "assay": "biochemical", "units": {"IC50": "nM"}}
{"smiles": "O=C(Nc1cc2ccccc2s1)c1ccccc1NS(=O)(=O)c1ccc(CCCO)cc1", "note": "[HL-0062, N-(benzo[b]thiophen-2-yl)-2-((4-(3-hydroxypropyl)phenyl)sulfonamido)benzamide]", "IC50": 1200}
{"smiles": "CCCCc1cccc(NC(=O)c2ccccc2NS(=O)(=O)c2ccc(C)cc2)c1", "note": "[HL-0070, N-(3-butylphenyl)-2-((4-methylphenyl)sulfonamido)benzamide]", "IC50": 130}
{"smiles": "Cc1ccc(S(=O)(=O)Nc2ccc(C#N)cc2C(=O)Nc2cc3ccccc3s2)cc1", "note": "[HL-0071, N-(benzo[b]thiophen-2-yl)-5-cyano-2-((4-methylphenyl)sulfonamido)benzamide]", "IC50": 43}
{"smiles": "Cc1ccc(S(=O)(=O)Nc2ccccc2C(=O)Nc2sc3c(c2C#N)CCC3)cc1", "note": "[JRW-0998, N-(3-cyano-5,6-dihydro-4H-cyclopenta[b]thiophen-2-yl)-2-((4-methylphenyl)sulfonamido)benzamide]", "IC50": 43}
{"smiles": "Cc1ccc(S(=O)(=O)Nc2ccccc2C(=O)Nc2sc3c(c2C#N)CCCC3)cc1", "note": "[JRW-1004, N-(3-cyano-4,5,6,7-tetrahydrobenzo[b]thiophen-2-yl)-2-((4-methylphenyl)sulfonamido)benzamide]", "IC50": 30}
{"smiles": "Cc1ccc(S(=O)(=O)Nc2ccccc2C(=O)Nc2sccc2C#N)cc1", "note": "[JRW-1006, N-(3-cyanothiophen-2-yl)-2-((4-methylphenyl)sulfonamido)benzamide]", "IC50": 1000}
{"smiles": "Cc1ccc(S(=O)(=O)Nc2ccccc2C(=O)Nc2ccccc2C#N)cc1", "note": "[JRW-1008, N-(2-cyanophenyl)-2-((4-methylphenyl)sulfonamido)benzamide]", "IC50": 240}
{"smiles": "Cc1ccc(S(=O)(=O)Nc2ccccc2C(=O)Nc2ccccc2)cc1", "note": "[JRW-1011, 2-((4-methylphenyl)sulfonamido)-N-phenylbenzamide]", "IC50": 94}
{"smiles": "CCCCc1ccc(NC(=O)c2ccccc2NS(=O)(=O)c2ccc(C)cc2)cc1", "note": "[JRW-1076, N-(4-butylphenyl)-2-((4-methylphenyl)sulfonamido)benzamide]", "IC50": 26}
{"smiles": "O=C(Nc1cc2ccccc2s1)c1ccccc1NS(=O)(=O)c1ccc2c(c1)CCCC2", "note": "[JRW-1077, N-(benzo[b]thiophen-2-yl)-2-((5,6,7,8-tetrahydronaphthalene)-2-sulfonamido)benzamide]", "IC50": 89}
{"smiles": "CCCCCCc1ccc(NC(=O)c2ccccc2NS(=O)(=O)c2ccc(C)cc2)cc1", "note": "[JRW-1090, N-(4-hexylphenyl)-2-((4-methylphenyl)sulfonamido)benzamide]", "IC50": 1100}
{"smiles": "CCCCc1ccc(S(=O)(=O)Nc2ccccc2C(=O)Nc2cc3ccccc3s2)cc1", "note": "[JRW-1114, N-(benzo[b]thiophen-2-yl)-2-((4-butylphenyl)sulfonamido)benzamide]", "IC50": 170}
{"smiles": "CCCCc1ccc(NS(=O)(=O)c2ccc(C)cc2)c(C(=O)Nc2cc3ccccc3s2)c1", "note": "[JRW-1146, N-(benzo[b]thiophen-2-yl)-5-butyl-2-((4-methylphenyl)sulfonamido)benzamide]", "IC50": 630}
{"smiles": "Cc1ccc(S(=O)(=O)Nc2ccccc2C(=O)Nc2ccc(CCCCO)cc2)cc1", "note": "[JRW-1150, N-(4-(4-hydroxybutyl)phenyl)-2-((4-methylphenyl)sulfonamido)benzamide]", "IC50": 19000}
{"smiles": "Cc1ccc(S(=O)(=O)Nc2ccccc2C(=O)Nc2ccc(CCCCBr)cc2)cc1", "note": "[JRW-1152, N-(4-(4-bromobutyl)phenyl)-2-((4-methylphenyl)sulfonamido)benzamide]", "IC50": 120}
{"smiles": "COc1ccc(NS(=O)(=O)c2ccc(C)cc2)c(C(=O)Nc2ccc(C)cc2)c1", "note": "[JRW-1166, 5-methoxy-2-((4-methylphenyl)sulfonamido)-N-(p-tolyl)benzamide]", "IC50": 130}
{"smiles": "COc1ccc(NS(=O)(=O)c2ccc(C)cc2)c(C(=O)Nc2cc3ccccc3s2)c1", "note": "[JRW-1167, N-(benzo[b]thiophen-2-yl)-5-methoxy-2-((4-methylphenyl)sulfonamido)benzamide]", "IC50": 20}
{"smiles": "COc1ccc(C(=O)Nc2ccc(C)cc2)c(NS(=O)(=O)c2ccc(C)cc2)c1", "note": "[JRW-1202, 4-methoxy-2-((4-methylphenyl)sulfonamido)-N-(p-tolyl)benzamide]", "IC50": 180}
{"smiles": "COc1ccc(C(=O)Nc2cc3ccccc3s2)c(NS(=O)(=O)c2ccc(C)cc2)c1", "note": "[JRW-1203, N-(benzo[b]thiophen-2-yl)-4-methoxy-2-((4-methylphenyl)sulfonamido)benzamide]", "IC50": 100}
{"smiles": "COc1cccc(S(=O)(=O)Nc2ccccc2C(=O)Nc2ccc(C)cc2)c1", "note": "[JRW-1205, 2-((3-methoxyphenyl)sulfonamido)-N-(p-tolyl)benzamide]", "IC50": 29}
{"smiles": "COc1cccc(S(=O)(=O)Nc2ccccc2C(=O)Nc2cc3ccccc3s2)c1", "note": "[JRW-1230, N-(benzo[b]thiophen-2-yl)-2-((3-methoxyphenyl)sulfonamido)benzamide]", "IC50": 7.8}
{"smiles": "Cc1ccc(NC(=O)c2cc(O)ccc2NS(=O)(=O)c2ccc(C)cc2)cc1", "note": "[JRW-1232, 5-hydroxy-2-((4-methylphenyl)sulfonamido)-N-(p-tolyl)benzamide]", "IC50": 1000}
{"smiles": "Cc1ccc(NC(=O)c2ccccc2NS(=O)(=O)c2cccc(O)c2)cc1", "note": "[JRW-1236, 2-((3-hydroxyphenyl)sulfonamido)-N-(p-tolyl)benzamide]", "IC50": 33}
{"smiles": "Cc1ccc(NC(=O)c2ccccc2NS(=O)(=O)c2cccc(-c3ccccc3)c2)cc1", "note": "[JRW-1248, 2-([1,1′-biphenyl]-3-sulfonamido)-N-(p-tolyl)benzamide]", "IC50": 280}
{"smiles": "COC(=O)c1cccc(S(=O)(=O)Nc2ccccc2C(=O)Nc2ccc(C)cc2)c1", "note": "[JRW-1250, methyl 3-(N-(2-(p-tolylcarbamoyl)phenyl)sulfamoyl)benzoate]", "IC50": 540}
{"smiles": "CC(=O)Nc1cccc(S(=O)(=O)Nc2ccccc2C(=O)Nc2ccc(C)cc2)c1", "note": "[JRW-1253, 2-((3-acetamidophenyl)sulfonamido)-N-(p-tolyl)benzamide]", "IC50": 2300}
{"smiles": "Cc1ccc(NC(=O)c2ccccc2NS(=O)(=O)c2cccc(N)c2)cc1", "note": "[JRW-1255, 2-((3-aminophenyl)sulfonamido)-N-(p-tolyl)benzamide]", "IC50": 60}
{"smiles": "Cc1ccc(NC(=O)c2ccccc2NS(=O)(=O)c2cccc(CO)c2)cc1", "note": "[JRW-1261, 2-((3-(hydroxymethyl)phenyl)sulfonamido)-N-(p-tolyl)benzamide]", "IC50": 170}
{"smiles": "CCCCOc1cccc(S(=O)(=O)Nc2ccccc2C(=O)Nc2ccc(C)cc2)c1", "note": "[JRW-1266, 2-((3-butoxyphenyl)sulfonamido)-N-(p-tolyl)benzamide]", "IC50": 1500}
{"smiles": "Cc1ccc(NC(=O)c2ccccc2NS(=O)(=O)c2cccc(Br)c2)cc1", "note": "[JRW-1267, 2-((3-bromophenyl)sulfonamido)-N-(p-tolyl)benzamide]", "IC50": 36}
{"smiles": "CCCCNc1cccc(S(=O)(=O)Nc2ccccc2C(=O)Nc2ccc(C)cc2)c1", "note": "[JRW-1269, 2-((3-(butylamino)phenyl)sulfonamido)-N-(p-tolyl)benzamide]", "IC50": 1100}
{"smiles": "CCCCC#Cc1cccc(S(=O)(=O)Nc2ccccc2C(=O)Nc2ccc(C)cc2)c1", "note": "[JRW-1270, 2-((3-(hex-1-yn-1-yl)phenyl)sulfonamido)-N-(p-tolyl)benzamide]", "IC50": 1200}
{"smiles": "Cc1ccc(NC(=O)c2ccccc2NS(=O)(=O)c2cccc(C#CCO)c2)cc1", "note": "[JRW-1272, 2-((3-(3-hydroxyprop-1-yn-1-yl)phenyl)sulfonamido)-N-(p-tolyl)benzamide]", "IC50": 700}
{"smiles": "Cc1ccc(NC(=O)c2ccccc2NS(=O)(=O)c2cccc(CCCO)c2)cc1", "note": "[JRW-1275, 2-((3-(3-hydroxypropyl)phenyl)sulfonamido)-N-(p-tolyl)benzamide]", "IC50": 340}
{"smiles": "Cc1ccc(S(=O)(=O)Nc2ccccc2C(=O)Nc2ccccc2Br)cc1", "note": "[JRW-1282, N-(2-bromophenyl)-2-((4-methylphenyl)sulfonamido)benzamide]", "IC50": 200}
{"smiles": "Cc1ccc(S(=O)(=O)Nc2ccccc2C(=O)Nc2cccc(Br)c2)cc1", "note": "[JRW-1283, N-(3-bromophenyl)-2-((4-methylphenyl)sulfonamido)benzamide]", "IC50": 46}
{"smiles": "Cc1ccc(NC(=O)c2ccccc2NS(=O)(=O)c2ccc(C(F)(F)F)cc2)cc1", "note": "[JRW-1284, N-(p-tolyl)-2-((4-(trifluoromethyl)phenyl)sulfonamido)benzamide]", "IC50": 710}
{"smiles": "COc1ccc(S(=O)(=O)Nc2ccccc2C(=O)Nc2ccc(C)cc2)cc1", "note": "[JRW-1285, 2-((4-methoxyphenyl)sulfonamido)-N-(p-tolyl)benzamide]", "IC50": 360}
{"smiles": "Cc1ccc(NC(=O)c2ccccc2NS(=O)(=O)c2ccc(Br)cc2)cc1", "note": "[JRW-1287, 2-((4-bromophenyl)sulfonamido)-N-(p-tolyl)benzamide]", "IC50": 150}
{"smiles": "Cc1ccc(S(=O)(=O)Nc2ccccc2C(=O)Nc2ccc(-c3ccccc3)cc2)cc1", "note": "[JRW-1288, N-([1,1′-biphenyl]-4-yl)-2-((4-methylphenyl)sulfonamido)benzamide]", "IC50": 110}
{"smiles": "COc1ccccc1NC(=O)c1ccccc1NS(=O)(=O)c1ccc(C)cc1", "note": "[JRW-1292, N-(2-methoxyphenyl)-2-((4-methylphenyl)sulfonamido)benzamide]", "IC50": 590}
{"smiles": "Cc1ccc(S(=O)(=O)Nc2ccccc2C(=O)Nc2cccc(-c3ccccc3)c2)cc1", "note": "[JRW-1297, N-([1,1′-biphenyl]-3-yl)-2-((4-methylphenyl)sulfonamido)benzamide]", "IC50": 100}
{"smiles": "COc1cccc(NC(=O)c2ccccc2NS(=O)(=O)c2ccc(C)cc2)c1", "note": "[JRW-1299, N-(3-methoxyphenyl)-2-((4-methylphenyl)sulfonamido)benzamide]", "IC50": 90}
{"smiles": "COc1ccc(NC(=O)c2ccccc2NS(=O)(=O)c2ccc(C)cc2)cc1", "note": "[JRW-1300, N-(4-methoxyphenyl)-2-((4-methylphenyl)sulfonamido)benzamide]", "IC50": 43}
{"smiles": "CCN(c1ccccc1C(=O)Nc1ccc(OC)cc1)S(=O)(=O)c1ccc(C)cc1", "note": "[JRW-1325, 2-((N-ethyl-4-methylphenyl)sulfonamido)-N-(4-methoxyphenyl)benzamide]", "IC50": 1300}
